Legend:
BCL-2 = target: T1, BCL-2 (Homo sapiens, UniProt P10415); assay: Binding activity for BCL-2 (HTRF, biotin-labeled BIM); settings: His-tagged BCL-2, biotin-labeled BIM
T1 construct: purchased R&D systems 827-BC-050
Method: In vitro BCL-2-binding activity was tested by the following method.
Reagents used in this experiment: His-tagged BCL-2 protein (R&D systems, Cat #827-BC-050); biotin-labeled BIM protein (R&D, Cat #3526/1); binding buffer (cisbio, Cat #62DLBDDF); assay buffer (cisbio, Cat #62DB1FDG); MAb anti-6His-Eu cryptate (cisbio, Cat #61HI2KLA); and affinity streptomycin linked XL665 (cisbio, Cat #611SAXLA).
The in vitro binding assay described below can determine the binding activity of test compounds for BCL-2.
The test compounds were dissolved in dimethyl sulfoxide and diluted to gradient concentrations as required for the experiment, and the compounds at various concentrations formulated in dimethyl sulfoxide were subjected to a 100-fold dilution with a binding buffer. BCL-2 was diluted to the corresponding concentration with a binding buffer solution, and added to a white 384-well plate at 4 μL/well. Then the diluted test compound was added into the white 384-well plate at 2 μL/well. The plate was incubated at 25° C. for 1 h after the mixture was uniformly mixed. Biotin-labeled BIM protein was diluted to the corresponding concentration with a binding buffer, and added to a white 384-well plate at 4 μL/well. The plate was incubated at 25° C. for 2 h after the mixture was uniformly mixed. The MAb anti-6His-Eu cryptate and the affinity streptomycin linked XL665 were each diluted to the corresponding concentration with an assay buffer, and added to a white 384-well plate at 5 μL/well. The plate was incubated at 25° C. for 2-4 h after the mixture was uniformly mixed. The signal values were read with the HTRF program in a microplate reader (BMG Labtech, model: PHERAstar FS).

NCI-H146 cells = assay: Inhibition of proliferation of NCI-H146 cells (CellTiter-Glo); type: cell-based; settings: Homo sapiens, 72 h, 3 days, read-out: Inhibitory activity IC50 (nM) for the proliferation of NCI-H146 cells
Method: (§1) In vitro inhibitory activity for the proliferation of RS4;11 cells and NCI-H146 cells was tested by the following method.
(§2) Reagents used in this experiment: RPMI-1640 medium (HyCLone, Cat #SH30243018); fetal bovine serum (Gibco, Cat #10099-141); pancreatin (Gibco, Cat #25200-072); Cell Titer-Glo (Promega, Cat #G7571).
(§3) Materials used: RS4;11 cells (Nanjing Kebai Biotechnology Co., Ltd, Cat #CBP60641); and NCI-H146 cells (ATCC, Cat #HTB-173).
(§4) The in vitro cell proliferation assay described below can determine the inhibitory activity of the test compounds for the proliferation of RS4;11 cells and NCI-H146 cells.
(§5) RS4;11 cells (or NCI-H146 cells) were cultured in an RPMI-1640 culture medium containing 10% FBS, and were passaged for 2-3 times a week in a passage ratio of 1:3 or 1:5. During passage, the cells were transferred to a centrifuge tube, and centrifuged at 1200 rpm for 3 min. The supernatant was discarded, and fresh culture medium was added to resuspend the cells. 90 μL of cell suspension was added to a 96-well cell culture plate, wherein RS4;11 cells and NCI-H146 cells were added at a density of 2.22×10^5 cells/mL. Only 100 μL of complete medium (RPMI-1640 medium containing 10% FBS) was added to the periphery of the 96-well plate. The plate was incubated in an incubator for 24 h (37° C., 5% CO2).
(§6) The test sample was diluted to a proper concentration gradient with dimethyl sulfoxide as required for the experiment. 5 μL of the solution of the test compound prepared in a gradient concentration was added to 95 μL of fresh culture medium and mixed uniformly, and then 10 μL of the culture medium containing the above compound was added to a cell culture plate. The cell culture plate was incubated in an incubator for 3 days (37° C., 5% CO2). 50 μL of CellTiter-Glo reagent was added into each well of the 96-well cell culture plate. The plate was let stand for 5-10 min away from the light at room temperature. The chemiluminescence signals were read by a microplate reader (BMG Labtech, model: PHERAstar FS) and the data were processed by GraphPad software.

RS4;11 cells = assay: Inhibition of proliferation of RS4;11 cells (CellTiter-Glo); type: cell-based; settings: Homo sapiens, 72 h, 3 days, read-out: Inhibitory activity IC50 (nM) for the proliferation of RS4;11 cells
Method: as §1, §2, §3, §4, §5, §6

[1] = system: human acute lymphoblastic leukemia RS4;11 mouse subcutaneous xenograft tumor; assay: Therapeutic effect on RS4;11 mouse subcutaneous xenograft tumor; type: in vivo; settings: NOD-Scid mice, RS4;11 xenograft; for Tolerability in tumor-bearing mice (weight loss) / Tumor rate TGI (%) inhibition: 10 mg/kg IV QW; for Tumor rate TGI (%) inhibition: D 20; for Mean tumor volume (mm^3) D 0: day 0, 10 mg/kg IV QW; for Mean tumor volume (mm^3) D 20: day 20, 10 mg/kg IV QW
Method: This experiment was performed to evaluate and compare the therapeutic effect of the compounds of the present disclosure on human acute lymphoblastic leukemia RS4;11 mouse subcutaneous xenograft tumor.
NOD-Scid mice, 5 weeks old, purchased from Beijing Huafukang Biotechnology Co., Ltd. Production license No.: SCXK (Beijing) 2019-0008; animal certification No.: 110322211100992176. Housing environment: SPF grade. 6 mice in a vehicle group, and 8 mice in a compound group.
5 mg of compound was added to 250 μL of DMSO and vortexed to provide a 20 mg/mL solution, which was diluted to the desired concentration with 30% hydroxypropyl-o-cyclodextrin (HP-3-CD, InnoStar Biotechnology Nantong Co., Ltd, Nantong).
Human acute lymphoblastic leukemia RS4;11 was purchased from American Type Culture Collection. RS4;11 cells were cultured in a 10 cm petri dish with an RPMI 1640 culture medium (Gibco) containing 10% fetal bovine serum (Gibco) and penicillin and streptomycin in an incubator at 37° C. containing 5% CO2. The cells were passaged twice a week, and then collected, counted and inoculated when in the exponential growth phase.
Each mouse was inoculated subcutaneously with 1×10^7 RS4;11 cells. When tumors grew to 100-200 mm^3, the mice were grouped according to tumor volume, intravenously (IV) injected with the drug once a week (QW) for a total of 4 times, at an injection volume of 0.1 mL/10 g body weight and a dose of 10 mg/kg.
The experimental index was to investigate the influence of the drug on the tumor growth, and the specific index was T/C % or tumor growth inhibition (TGI %).
Tumor diameters were measured twice a week with a vernier caliper and tumor volume (V) was calculated according to the following formula:
V=½×a×b^2 where a and b represent length and width, respectively.
T/C(%)=(T−T0)/(C−C0)×100,
where T and C represent the tumor volume of animals at the end of the experiment in the treatment group and control group, respectively;
T0 and C0 represent the tumor volume of animals at the beginning of the experiment in the treatment group and control group, respectively.
Tumor growth inhibition % (TGI %)=100−T/C(%).
When tumor started to regress, tumor growth inhibition % (TGI %)=100−(T−T0)/T0×100.
If the tumor had reduced volume compared with the initial volume, i.e., T<T0 or C<C0, it was defined as partial regression (PR) of tumor; if the tumor completely disappeared, it was defined as complete regression (CR) of tumor.

T1 sequence (P10415 whole entry): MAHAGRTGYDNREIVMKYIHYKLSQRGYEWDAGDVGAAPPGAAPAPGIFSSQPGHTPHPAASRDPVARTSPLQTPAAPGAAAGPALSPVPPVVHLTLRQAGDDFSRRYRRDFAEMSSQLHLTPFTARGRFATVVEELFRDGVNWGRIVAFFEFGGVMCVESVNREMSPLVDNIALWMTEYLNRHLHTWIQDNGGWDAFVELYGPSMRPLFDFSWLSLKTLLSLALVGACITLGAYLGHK

O=C(NS(=O)(=O)c1ccc(N[C@@H](CSc2ccccc2)C[C@@H]2CCCN2CCO)c(S(=O)(=O)C(F)(F)F)c1)c1ccc(N2CCC([C@@H](O)c3ccccc3-c3ccc(Cl)cc3)CC2)cc1 [Example 2-9, 4-(4-((R)-(4′-chloro-[1,1′-biphenyl]-2-yl)(hydroxy)methyl)piperidin-1-yl)-N-((4-(((R)-1-((S)-1-(2-hydroxyethyl)pyrrolidin-2-yl)-3-(phenylthio)propan-2-yl)amino)-3-((trifluoromethyl)sulfonyl)phenyl)sulfonyl)benzamide]
Ki (BCL-2): 0.02 nM | IC50 (NCI-H146 cells): 7 nM | IC50 (RS4;11 cells): 1.8 nM | Tolerability in tumor-bearing mice (weight loss) [1]: well tolerate | Tumor rate TGI (%) inhibition [1]: 72% | Mean tumor volume (mm^3) D 0 [1]: 151.0 mm^3 | Mean tumor volume (mm^3) D 20 [1]: 612.7 mm^3

CN(CCO)CC[C@H](CSc1ccccc1)Nc1ccc(S(=O)(=O)NC(=O)c2ccc(N3CCC([C@@H](O)c4ccccc4-c4ccc(C(F)(F)F)cc4)CC3)cc2)cc1S(=O)(=O)C(F)(F)F [Example 2-10, 4-(4-((R)-hydroxy(4′-(trifluoromethyl)-[1,1′-biphenyl]-2-yl)methyl)piperidin-1-yl)-N-((4-(((R)-4-((2-hydroxyethyl)(methyl)amino)-1-(phenylthio)butan-2-yl)amino)-3-((trifluoromethyl)sulfonyl)phenyl)sulfonyl)benzamide]
Ki (BCL-2): 0.03 nM | IC50 (NCI-H146 cells): 4 nM | IC50 (RS4;11 cells): 1 nM | Tolerability in tumor-bearing mice (weight loss) [1]: well tolerate | Tumor rate TGI (%) inhibition [1]: 82% | Mean tumor volume (mm^3) D 0 [1]: 151.9 mm^3 | Mean tumor volume (mm^3) D 20 [1]: 443.3 mm^3

— patent US20230250077A1, “SULFONYLBENZAMIDE DERIVATIVE AND CONJUGATE THEREOF, PREPARATION METHOD THEREFOR AND USE THEREOF” (Jiangsu Hengrui Pharmaceuticals Co., Ltd., priority 2020, published 2023)
